According to US20060154323A1, “Method for obtaining dynamic and structural data pertaining to proteins and protein/ligand complexes” (ProSpect Pharma, priority 2002, published 2006):

What was measured:
Mouse Urinary Protein = target: T1, Mouse Urinary Protein (Mus musculus, UniProt P11588); assay: 13C NMR relaxation (T1, T2) of valine 13CHD2-labeled MUP in absence and presence of ligand; conditions: for T1, Change / T2, Change: Protein vs Bound Protein; for T1, Bound Protein / T2, Bound Protein: 298 K;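 as to T1, Bound Protein: unit milliseconds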;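 as to T2, Bound Protein: unit milliseconds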
T1 construct: made in house; host or cells: E. coli M15 cells with vector pqe30 MUP
T1 sequence (P11588 19-180): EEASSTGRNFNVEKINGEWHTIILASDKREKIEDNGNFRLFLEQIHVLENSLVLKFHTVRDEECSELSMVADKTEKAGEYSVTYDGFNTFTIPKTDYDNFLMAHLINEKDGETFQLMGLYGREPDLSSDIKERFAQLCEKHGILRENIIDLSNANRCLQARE
Protocol: A 15 mg sample of L-valine-α-D-^12CD(^13CHD2)2 labeled MUP was dissolved in 650 μL phosphate buffered saline (10 mM potassium phosphate; 200 mM sodium chloride), to which was added 50 μL deuterium oxide. ^13C Relaxation rates (R2 and R1) of ^13CHD2 groups were determined using pulse sequences as described in Ishima et al., J. Am. Chem. Soc. 121:11589-11590 (1999). Spectral parameters were as follows: spectral width in the ^13C dimension, 900 Hz; spectral width in the ^1H dimension, 5200 Hz; number of real data points in the ^13C dimension, 128; number of real points in the ^1H dimension, 1408; number of transients per t1 increment, 8; probe temperature, 298 K. Prior to two-dimensional Fourier transformation, free induction decays were apodized with cosine-bell windowing functions according to known methods.
The NMR analysis was then repeated following addition of the small molecule ligand 1 μL of isobutyl pyrazine or 1 μL of isopropyl pyrazine to separate solutions of MUP. The data shown below in Tables I and II and in FIG. 8 were obtained, clearly showing the changes in T1 and T2 values obtained on addition of these small molecule ligands.

MUP [1] = target: T2, MUP (Mus musculus, UniProt P11588); assay: Binding of small hydrophobic ligands to MUP (Kd)
T2 construct: made in house; host or cells: E. coli M15 cells with vector pqe30 MUP
T2 sequence (P11588 19-180): T1 sequence (P11588 19-180)

MUP [2] = target: T2, MUP; assay: 13C-1H HSQC spectra of valine-enriched MUP complexes; conditions: 13C-1H HSQC of complexes with valine-enriched MUP
Major Urinary Protein = target: T3, Major Urinary Protein (Mus musculus, UniProt P11588); assay: S2axis order parameters of valine methyl groups from 600 MHz 13C R1/R2 relaxation of valine-enriched MUP and its complexes; conditions: for S^2axis: MUP-ligand complex, 600 MHz, 30° C., pH 7.0
T3 construct: made in house; host or cells: E. coli M15 cells with vector pqe30 MUP
T3 sequence (P11588 19-180): T1 sequence (P11588 19-180)
Protocol: Samples of [^13C^γ1,^γ2HD2]-U-^2H valine enriched MUP both alone and complexed with 2-methoxy-3-isopropylpyrazine and 2-methoxy-3-isobutylpyrazine were prepared from a single sample at pH 7.0 and a protein concentration of 1 mM. A further sample of methyl-^13C, ^2H enriched MUP was prepared at pH 7.0 and a protein concentration of 0.5 mM. Longitudinal (R1) and transverse (R2) ^13C relaxation rates were determined essentially as described by Ishima et al., J. Am. Chem. Soc. 121:11589-11590, 1999. All spectra were recorded at a proton frequency of 600 MHz and a probe temperature of 30° C. R1 rates were determined with relaxation delay times of 16, 64, 128, 240, 400, 720, 1120, 1600, 2240 and 2880 milliseconds. R2 rates were determined with relaxation delay times of 16, 32, 48, 64, 96, 160, 192, 240 and 288 milliseconds, and an effective field strength of 2 kHz. Relaxation data were fit to a single exponential decay function I=I0exp(−tR), where I0 is the initial resonance intensity, t is the relaxation delay time and R is the relaxation rate (R1 or R2). Relaxation data were fitted to the Lipari-Szabo model-free spectral density of the form: J(ω)=S^2τm/(1+ω^2τ^2m)+(1−S^2)τi/(1+ω^2τi^2), where τi^−1=τM^−1+τe^−1, τM is the overall molecular tumbling correlation time and τe is the effective internal correlation time. See Lipari and Szabo, J. Am. Chem. Soc. 104:4546-4559, 1982. This equation is valid for fast internal motions, τe<<τM, under which conditions the order parameter for methyl CH dipolar relaxation is given by S^2=Saxis^2[P2(cos θH]^2. Saxis^2 is the order parameter of the methyl rotation axis and θH is the angle made by the axis and the CH bond vector. A global rotational correlation time of […] was used for these calculations, according to the previously reported value. Zidek et al., Nature Str. Biol. 6:1118-1121, 1999. Although the valine residues were perdeuterated at non-methyl positions, the protein was otherwise protonated, and dipolar relaxation due to these “external” protons is not negligible for ^13C relaxation. Thus, by analogy with the work of Ishima et al. J. Am. Chem. Soc. 123:6164-6171, 2001, the contribution of these external protons to ^13C R2 values was estimated at 25% from the X-ray coordinates of MUP. Consequently, measured ^13C R^2 rates were multiplied by 0.75 to account for these external dipolar relaxation processes.

[3] = valine methyl 59.HG1 (first line)
[4] = valine methyl 59.HG1 (second line)

Structure (SMILES): COc1nccnc1CC(C)C [2-methoxy-3-isobutylpyrazine]
- T1, Change (Mouse Urinary Protein; 12.HG1): 35.219 milliseconds
- T2, Change (Mouse Urinary Protein; 12.HG1): −13.500 milliseconds
- T2, Change (Mouse Urinary Protein; 12.HG2): −16.796 milliseconds
- T1, Change (Mouse Urinary Protein; 47.HG1): 9.550 milliseconds
- T2, Change (Mouse Urinary Protein; 47.HG1): −16.055 milliseconds
- T1, Change (Mouse Urinary Protein; 47.HG2): −82.069 milliseconds
- T2, Change (Mouse Urinary Protein; 47.HG2): −12.196 milliseconds
- T1, Change (Mouse Urinary Protein; 53.HG1): −98.976 milliseconds
- T2, Change (Mouse Urinary Protein; 53.HG1): −10.901 milliseconds
- T1, Change (Mouse Urinary Protein; 53.HG2): 17.840 milliseconds
- T2, Change (Mouse Urinary Protein; 53.HG2): −13.096 milliseconds
- T1, Change (Mouse Urinary Protein; 59.HG1 (first line)): −84.312 milliseconds
- T2, Change (Mouse Urinary Protein; 59.HG1 (first line)): −22.344 milliseconds
- T1, Change (Mouse Urinary Protein; 59.HG1 (second line)): 20.312 milliseconds
- T2, Change (Mouse Urinary Protein; 59.HG1 (second line)): −3.040 milliseconds
- T1, Change (Mouse Urinary Protein; 70.HG1): 379.619 milliseconds
- T2, Change (Mouse Urinary Protein; 70.HG1): −65.766 milliseconds
- T1, Change (Mouse Urinary Protein; 70.HG2): −324.602 milliseconds
- T2, Change (Mouse Urinary Protein; 70.HG2): 33.869 milliseconds
- T1, Change (Mouse Urinary Protein; 82.HG1): 1.260 milliseconds
- T2, Change (Mouse Urinary Protein; 82.HG1): 7.645 milliseconds
- T1, Change (Mouse Urinary Protein; 82.HG2): −33.349 milliseconds
- T2, Change (Mouse Urinary Protein; 82.HG2): 22.399 milliseconds
- contribution of valine side-chains to the entropy of binding (Mouse Urinary Protein; from relaxation data in the presence of ligand): do not contribute significantly
- T1, Bound Protein (Mouse Urinary Protein; valine methyl 12.HG1): 1760.141 milliseconds
- T2, Bound Protein (Mouse Urinary Protein; valine methyl 12.HG1): 166.608 milliseconds
- T2, Bound Protein (Mouse Urinary Protein; valine methyl 12.HG2): 200.110 milliseconds
- T1, Bound Protein (Mouse Urinary Protein; valine methyl 47.HG1): 1619.169 milliseconds
- T2, Bound Protein (Mouse Urinary Protein; valine methyl 47.HG1): 171.287 milliseconds
- T1, Bound Protein (Mouse Urinary Protein; valine methyl 47.HG2): 1072.690 milliseconds
- T2, Bound Protein (Mouse Urinary Protein; valine methyl 47.HG2): 162.950 milliseconds
- T1, Bound Protein (Mouse Urinary Protein; valine methyl 53.HG1): 2332.247 milliseconds
- T2, Bound Protein (Mouse Urinary Protein; valine methyl 53.HG1): 174.600 milliseconds
- T1, Bound Protein (Mouse Urinary Protein; valine methyl 53.HG2): 1382.566 milliseconds
- T2, Bound Protein (Mouse Urinary Protein; valine methyl 53.HG2): 163.379 milliseconds
- T1, Bound Protein (Mouse Urinary Protein; [3]): 1367.075 milliseconds
- T2, Bound Protein (Mouse Urinary Protein; [3]): 200.992 milliseconds
- T1, Bound Protein (Mouse Urinary Protein; [4]): 1502.825 milliseconds
- T2, Bound Protein (Mouse Urinary Protein; [4]): 150.756 milliseconds
- T1, Bound Protein (Mouse Urinary Protein; valine methyl 70.HG1): 1701.953 milliseconds
- T2, Bound Protein (Mouse Urinary Protein; valine methyl 70.HG1): 186.968 milliseconds
- T1, Bound Protein (Mouse Urinary Protein; valine methyl 70.HG2): 1488.130 milliseconds
- T2, Bound Protein (Mouse Urinary Protein; valine methyl 70.HG2): 128.164 milliseconds
- T1, Bound Protein (Mouse Urinary Protein; valine methyl 82.HG1): 913.641 milliseconds
- T2, Bound Protein (Mouse Urinary Protein; valine methyl 82.HG1): 216.738 milliseconds
- T1, Bound Protein (Mouse Urinary Protein; valine methyl 82.HG2): 703.150 milliseconds
- T2, Bound Protein (Mouse Urinary Protein; valine methyl 82.HG2): 201.054 milliseconds
- Kd (MUP [1]): 0.08 µM
- shift perturbations of Val 82 γ1 and γ2 correlations (MUP [2]): Significant shift perturbations
- changes in Saxis^2 of the six valine residues in MUP upon binding (Major Urinary Protein): only minor changes
- S^2axis (Major Urinary Protein; Val-12 C^γ1): 0.86
- S^2axis (Major Urinary Protein; Val-12 C^γ2): 0.66
- S^2axis (Major Urinary Protein; Val-47 C^γ1): 0.86
- S^2axis (Major Urinary Protein; Val-47 C^γ2): 0.88
- S^2axis (Major Urinary Protein; Val-53 C^γ1): 0.78
- S^2axis (Major Urinary Protein; Val-53 C^γ2): 0.86
- S^2axis (Major Urinary Protein; Val-59 C^γ1): 0.63
- S^2axis (Major Urinary Protein; Val-59 C^γ2): 0.90
- S^2axis (Major Urinary Protein; Val-70 C^γ1): 0.81
- S^2axis (Major Urinary Protein; Val-70 C^γ2): [1.03]
- S^2axis (Major Urinary Protein; Val-82 C^γ1): 0.53
- S^2axis (Major Urinary Protein; Val-82 C^γ2): 0.53
- contribution of valine side-chains to the entropy of binding (Major Urinary Protein; from computations of Saxis^2 values, free protein and complexes): do not contribute significantly
